Data reported in US4156725A (priority 1972, dated 1979).

Tests used:
Derm. dermatonomous = conditions: British Pat. No. 1303171 and application No. 36289/70; cited from earlier work
Cl. perfringens = conditions: British Pat. No. 1303171 and application No. 36289/70; cited from earlier work
[1] = molecular target: hydroxymethyldihydropteridine pyrophosphokinase (HMPPS) (Escherichia coli, UniProt P26281); test: Inhibition of the enzymes of dihydropteroate biosynthesis (ATP-γ-P32 transfer / dihydropteroate-C14 formation); type: biochemical; conditions: E. coli enzyme extract; tests of Example K; read-out: concentration giving 50% inhibition
Sequence of hydroxymethyldihydropteridine pyrophosphokinase (HMPPS) (P26281 whole entry): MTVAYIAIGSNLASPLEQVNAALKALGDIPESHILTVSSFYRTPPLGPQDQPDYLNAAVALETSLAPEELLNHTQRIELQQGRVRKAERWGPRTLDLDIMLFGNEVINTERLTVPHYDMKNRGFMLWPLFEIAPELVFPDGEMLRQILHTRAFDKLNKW
Procedure: The inhibiting activity against HMPPS of a selected compound of formula (I) can, for instance, be tested by monitoring the transfer of the terminal phosphate of adenosinetriphosphate ATP-γ-p^32 to `dihydropteridine`. […] Such inhibition may, for instance, be easily and simply carried out by incubating an extract of E. coli with pAb-7-C^14, ATP, Mg and `dihydropteridine`. The formation of the dihydropteroate-C^14 can be quantitatively assayed after separating the unreacted pAB substrate, for instance by chromatography. […] Preferably the value is 25 μM or less, such as in the range between 2 to 12 μM. Generally a value below 7 μM is desirable. […]
(a) An assay for HMPPS was developed in which the transfer of the terminal phosphate of ATP-γ-P^32 to Pt could be monitored and correlated with the amount of inhibition of HMPPS by the compound under test. […]
Tubes 1 to 9 containing the amounts of components shown in the Table, were filled up to 200 μl with distilled water, incubated for 60 minutes at 37° C. and then chilled on ice. […] The charcoal and the filter were then radioactively counted. […]
(b) The activity of the test compound of formula (I) against `synthetase` was determined as follows, by monitoring the formation of dihydropteroate C^14. […]

Compound | bacteriostatic activity (Derm. dermatonomous) | bacteriostatic activity (Cl. perfringens) | IC50 [1] [µM]
CC1(C)Nc2nc(N)nc(O)c2N=C1CO [2-amino-4-hydroxy-6-hydroxymethyl-7,7-dimethyl-7,8-dihydropteridine] | particularly effective | particularly effective | 
CC1=Nc2c(O)nc(N)nc2NC1(C)C [2-amino-4-hydroxy-6-methyl-7,7-dimethyl-7,8-dihydropteridine] | particularly effective | particularly effective | 
CC1(C)Nc2nc(N)nc(O)c2N=C1COc1ccccc1 [A, 2-Amino-4-hydroxy-6-phenoxymethyl-7,7-dimethyl-7,8-dihydropteridine] |  |  | 17
